Laboratory results from PubChem BioAssay AID2060493 (Molecular Pharmacology Branch, DTP, NCI, 2025).

Tested on: 616215-338-R-J1-PDC tumor spheroids, viability
Test: Anticancer human tumor 616215-338-R-J1-PDC patient-derived colon adenocarcinoma cell line growth inhibition [GQUAD]
Details: spheroids with HUVEC and MSC; for IC50: curve of first compound; for viability, T/C: stronger effect = lower value
Summary of the method: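 Viability of tumor cells grown as complex spheroids with endothelial and stromal cells, exposed to drug combinations. Top concentration at or near clinical Cmax (else 10 microM), diluted in half-log increments.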

[1] = second compound 0.0316 µM, first compound 0.0316 µM
[2] = second compound 0.0316 µM, first compound 0.1 µM
[3] = second compound 0.0316 µM, first compound 0.316 µM
[4] = second compound 0.0316 µM, first compound 1 µM
[5] = second compound 0.0316 µM, first compound 3.16 µM
[6] = second compound 0.0316 µM, first compound 10 µM
[7] = second compound 0.1 µM, first compound 0.0316 µM
[8] = second compound 0.1 µM, first compound 0.1 µM
[9] = second compound 0.1 µM, first compound 0.316 µM
[10] = second compound 0.1 µM, first compound 1 µM
[11] = second compound 0.1 µM, first compound 3.16 µM
[12] = second compound 0.1 µM, first compound 10 µM
[13] = second compound 0.316 µM, first compound 0.0316 µM
[14] = second compound 0.316 µM, first compound 0.1 µM
[15] = second compound 0.316 µM, first compound 0.316 µM
[16] = second compound 0.316 µM, first compound 1 µM
[17] = second compound 0.316 µM, first compound 3.16 µM
[18] = second compound 0.316 µM, first compound 10 µM
[19] = second compound 1 µM, first compound 0.0316 µM
[20] = second compound 1 µM, first compound 0.1 µM
[21] = second compound 1 µM, first compound 0.316 µM
[22] = second compound 1 µM, first compound 1 µM
[23] = second compound 1 µM, first compound 3.16 µM
[24] = second compound 1 µM, first compound 10 µM
[25] = second compound 3.16 µM, first compound 0.0316 µM
[26] = second compound 3.16 µM, first compound 0.1 µM
[27] = second compound 3.16 µM, first compound 0.316 µM
[28] = second compound 3.16 µM, first compound 1 µM
[29] = second compound 3.16 µM, first compound 3.16 µM
[30] = second compound 3.16 µM, first compound 10 µM
[31] = second compound 10 µM, first compound 0.0316 µM
[32] = second compound 10 µM, first compound 0.1 µM
[33] = second compound 10 µM, first compound 0.316 µM
[34] = second compound 10 µM, first compound 1 µM
[35] = second compound 10 µM, first compound 3.16 µM
[36] = second compound 10 µM, first compound 10 µM
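Note: spheroids exposed to agents for 7 days before readout.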
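Throughout, for viability, T/C: percent viability relative to DMSO vehicle control wells taken as 100%.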

CC1COCCN1c1cc(C2(O)CC3CCC(C2)O3)c2cnn(-c3ccn[nH]3)c2n1 (stereo unspecified) + CN(C)c1ccc(Nc2c3ccc(NC(=O)CCN4CCCC4)cc3nc3cc(NC(=O)CCN4CCCC4)ccc23)cc1
IC50 (second compound 0.0316 µM): 184 nM
IC50 (second compound 0.1 µM): 213 nM
IC50 (second compound 0.316 µM): 196 nM
IC50 (second compound 1 µM): 201 nM
IC50 (second compound 3.16 µM): 225 nM
IC50 (second compound 10 µM): 139 nM
viability, T/C [1]: 98.6%
viability, T/C [2]: 63.5%
viability, T/C [3]: 38.5%
viability, T/C [4]: 24%
viability, T/C [5]: 15.5%
viability, T/C [6]: 18.4%
viability, T/C [7]: 102%
viability, T/C [8]: 72.7%
viability, T/C [9]: 34.7%
viability, T/C [10]: 30.3%
viability, T/C [11]: 20.8%
viability, T/C [12]: 15.2%
viability, T/C [13]: 94.3%
viability, T/C [14]: 64.7%
viability, T/C [15]: 36.4%
viability, T/C [16]: 31.9%
viability, T/C [17]: 17.3%
viability, T/C [18]: 15.3%
viability, T/C [19]: 95.4%
viability, T/C [20]: 72.5%
viability, T/C [21]: 34.3%
viability, T/C [22]: 24.1%
viability, T/C [23]: 24.4%
viability, T/C [24]: 11.7%
viability, T/C [25]: 99.5%
viability, T/C [26]: 67.2%
viability, T/C [27]: 41.3%
viability, T/C [28]: 28.4%
viability, T/C [29]: 25.2%
viability, T/C [30]: 13.2%
viability, T/C [31]: 84.7%
viability, T/C [32]: 55.2%
viability, T/C [33]: 35.2%
viability, T/C [34]: 27.1%
viability, T/C [35]: 24.2%
viability, T/C [36]: 13.4%

Cc1[nH]c2ccccc2c1CCNCc1ccc(/C=C/C(=O)NO)cc1 + CN(C)c1ccc(Nc2c3ccc(NC(=O)CCN4CCCC4)cc3nc3cc(NC(=O)CCN4CCCC4)ccc23)cc1
IC50 (second compound 0.0316 µM): 174 nM
IC50 (second compound 0.1 µM): 132 nM
IC50 (second compound 0.316 µM): 134 nM
IC50 (second compound 1 µM): 118 nM
IC50 (second compound 3.16 µM): 90.8 nM
IC50 (second compound 10 µM): 66.1 nM
viability, T/C (second compound 0.0316 µM, first compound 0.000999 µM): 104%
viability, T/C (second compound 0.0316 µM, first compound 0.00316 µM): 102%
viability, T/C (second compound 0.0316 µM, first compound 0.00999 µM): 104%
viability, T/C [1]: 107%
viability, T/C (second compound 0.0316 µM, first compound 0.0999 µM): 83.1%
viability, T/C [3]: 14.2%
viability, T/C (second compound 0.1 µM, first compound 0.000999 µM): 93.1%
viability, T/C (second compound 0.1 µM, first compound 0.00316 µM): 99.5%
viability, T/C (second compound 0.1 µM, first compound 0.00999 µM): 104%
viability, T/C [7]: 88.8%
viability, T/C (second compound 0.1 µM, first compound 0.0999 µM): 61.2%
viability, T/C [9]: 15.8%
viability, T/C (second compound 0.316 µM, first compound 0.000999 µM): 101%
viability, T/C (second compound 0.316 µM, first compound 0.00316 µM): 103%
viability, T/C (second compound 0.316 µM, first compound 0.00999 µM): 113%
viability, T/C [13]: 104%
viability, T/C (second compound 0.316 µM, first compound 0.0999 µM): 62.7%
viability, T/C [15]: 12.3%
viability, T/C (second compound 1 µM, first compound 0.000999 µM): 113%
viability, T/C (second compound 1 µM, first compound 0.00316 µM): 93.8%
viability, T/C (second compound 1 µM, first compound 0.00999 µM): 105%
viability, T/C [19]: 86%
viability, T/C (second compound 1 µM, first compound 0.0999 µM): 57%
viability, T/C [21]: 7.13%
viability, T/C (second compound 3.16 µM, first compound 0.000999 µM): 102%
viability, T/C (second compound 3.16 µM, first compound 0.00316 µM): 96.8%
viability, T/C (second compound 3.16 µM, first compound 0.00999 µM): 87.8%
viability, T/C [25]: 92%
viability, T/C (second compound 3.16 µM, first compound 0.0999 µM): 46.2%
viability, T/C [27]: 12.2%
viability, T/C (second compound 10 µM, first compound 0.000999 µM): 92.9%
viability, T/C (second compound 10 µM, first compound 0.00316 µM): 93%
viability, T/C (second compound 10 µM, first compound 0.00999 µM): 77.7%
viability, T/C [31]: 70.3%
viability, T/C (second compound 10 µM, first compound 0.0999 µM): 39.3%
viability, T/C [33]: 0.37%

O=c1[nH]cc(F)c(=O)[nH]1 + Cc1cnc(CNC(=O)c2c(=O)c3ccc(N4CCCN(C)CC4)nc3n3c2sc2ccccc23)cn1
IC50 (second compound 0.0316 µM): 786 nM
IC50 (second compound 0.1 µM): 559 nM
IC50 (second compound 0.316 µM): < 31.6 nM
IC50 (second compound 1 µM): < 31.6 nM
IC50 (second compound 3.16 µM): < 31.6 nM
IC50 (second compound 10 µM): < 31.6 nM
viability, T/C [1]: 98.8%
viability, T/C [2]: 98.7%
viability, T/C [3]: 62.9%
viability, T/C [4]: 51.5%
viability, T/C [5]: 40.4%
viability, T/C [6]: 35.8%
viability, T/C [7]: 66.8%
viability, T/C [8]: 62.4%
viability, T/C [9]: 54.1%
viability, T/C [10]: 40.4%
viability, T/C [11]: 46.5%
viability, T/C [12]: 31.5%
viability, T/C [13]: 40.9%
viability, T/C [14]: 48.7%
viability, T/C [15]: 54.6%
viability, T/C [16]: 36.1%
viability, T/C [17]: 43%
viability, T/C [18]: 39.2%
viability, T/C [19]: 32.4%
viability, T/C [20]: 39.2%
viability, T/C [21]: 42.6%
viability, T/C [22]: 33.4%
viability, T/C [23]: 36.6%
viability, T/C [24]: 22.4%
viability, T/C [25]: 31.7%
viability, T/C [26]: 25.2%
viability, T/C [27]: 22.1%
viability, T/C [28]: 30.3%
viability, T/C [29]: 34.1%
viability, T/C [30]: 28.7%
viability, T/C [31]: 25.7%
viability, T/C [32]: 28.7%
viability, T/C [33]: 25.6%
viability, T/C [34]: 30.3%
viability, T/C [35]: 25.6%
viability, T/C [36]: 30.4%
